According to patent US20180125921A1, “USE OF QBP1 PEPTIDE FOR THE INHIBITION OF MEMORY CONSOLIDATION” (CONSEJO SUPERIOR DE INVESTIGACIONES CIENTÍFICAS, priority 2015, published 2018):
Residues, ends and D or L forms follow the SMILES beside them.

Experiments:
Orb2A PLD [1] = test: Turbidimetry of Orb2A PLD amyloidogenesis; conditions: protein 10 μM, peptide 50 μM, 37° C., turbidity at 405 nm
Protocol: (§1) Buffers, time and storage conditions, and protein/peptide concentrations used in the aforementioned techniques were as follows: • AFM-SMFS: Experiments were performed using 2-3 μM polyproteins in 10 mM Tris-HCl pH 7.5 at room temperature with proteins incubated at 4° C. between sessions and NTA-Ni2+ functionalized coverslips. For experiments in the presence of the peptides QBP1 and SCR, 20 μM of the peptide were used dissolved in DMSO, and the samples were incubated overnight with the peptide at 4° C. before the measurement. • CD: For far-UV CD spectra it was used a protein concentration of 2-5 μM in 5 mM NaH2PO4, with 0.02% NaN3, pH 6.0. […] The secondary structure content of each protein and its evolution during incubation were estimated by spectra deconvolution using the CDNN analysis program (Bohm, G., et al., Quantitative analysis of protein far UV circular dichroism spectra by neural networks, Protein Eng (1992) 5 (3): 191-5). For thermal stability measurements, the ellipticity changes induced by increasing the temperature (at a constant heating rate of 60° C./h) were measured at 222 nm in 5 mM NaH2PO4 pH 6.0 using a protein concentration of 20 μM. • Turbidimetry: Protein samples used were at 10 μM in PBS+0.02% NaN3, pH 7.0 for all the kinetic experiments. […]

full-length Orb2A = full-length Orb2A (Drosophila melanogaster, UniProt Q9VSR3); test: Isothermal titration calorimetry (ITC) of peptide interaction with Orb2A; conditions: 25° C., PBS pH 7.4, Orb2A injected into excess peptide; no quantitative analysis
Chain of full-length Orb2A (Q9VSR3 1-551 isoform Q9VSR3-2): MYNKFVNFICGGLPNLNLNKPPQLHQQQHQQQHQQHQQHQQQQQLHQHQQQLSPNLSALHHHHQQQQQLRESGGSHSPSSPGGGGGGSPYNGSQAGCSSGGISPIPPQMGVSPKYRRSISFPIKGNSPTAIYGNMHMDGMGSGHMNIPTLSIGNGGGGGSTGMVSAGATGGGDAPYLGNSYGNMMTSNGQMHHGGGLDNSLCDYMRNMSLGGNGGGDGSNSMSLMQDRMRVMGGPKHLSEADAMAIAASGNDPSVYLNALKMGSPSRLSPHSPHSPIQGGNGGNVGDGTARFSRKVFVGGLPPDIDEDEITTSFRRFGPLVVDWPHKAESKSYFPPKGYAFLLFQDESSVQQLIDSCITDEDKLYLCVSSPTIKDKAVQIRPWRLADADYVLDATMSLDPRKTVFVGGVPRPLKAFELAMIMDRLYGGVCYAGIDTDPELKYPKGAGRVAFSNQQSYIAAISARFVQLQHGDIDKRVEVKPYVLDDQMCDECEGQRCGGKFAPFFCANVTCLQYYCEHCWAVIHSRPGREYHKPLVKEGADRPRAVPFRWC
Protocol: Proteins were equilibrated in PBS, pH 7.4, by gel-filtration chromatography and the equilibration buffer was used to prepare the peptide solutions. Protein/peptide binding was tested by successive injections of protein sample (10 to 25 μl each) into the reaction cell loaded with peptide at high final [peptide]/[protein] molar ratios. The apparent heat of reaction for each injection was obtained by integration of the peak area. The heats developed on protein or peptide dilutions were determined in separate runs loading the sample cell or the injection syringe with buffer, respectively, in the conditions used for the binding experiments. […] Protein (Orb2A, 185 μM) and ligand (QBP1 and SCR, 300 μM and 51 μM, respectively) concentrations in the loading solutions were measured spectrophotometrically using their respective extinction coefficients. • Drosophila strains.

Orb2A PLD [2] = test: CR binding assay of Orb2A PLD amyloid; conditions: protein 10 μM, peptide 50 μM, aged 7 days at 37° C.
Protocol: as §1

Orb2A PLD [3] = test: Far-UV CD spectroscopy of Orb2A PLD over time; conditions: peptide five fold molar excess, 37° C.
Protocol: as §1

Orb2A PLD [4] = test: AFM-SMFS conformational polymorphism of Orb2A PLD; conditions: 20 μM peptide
Protocol: Buffers, time and storage conditions, and protein/peptide concentrations used in the aforementioned techniques were as follows: • AFM-SMFS: Experiments were performed using 2-3 μM polyproteins in 10 mM Tris-HCl pH 7.5 at room temperature with proteins incubated at 4° C. between sessions and NTA-Ni2+ functionalized coverslips. For experiments in the presence of the peptides QBP1 and SCR, 20 μM of the peptide were used dissolved in DMSO, and the samples were incubated overnight with the peptide at 4° C. before the measurement. • CD: For far-UV CD spectra it was used a protein concentration of 2-5 μM in 5 mM NaH2PO4, with 0.02% NaN3, pH 6.0. The QBP1 or SCR (when used) was five fold molar excess relative to proteins (final concentrations 10 to 25 μM with the final concentration (v/v) of DMSO below 0.01%). After recording the first protein spectrum (hour 0), the protein was incubated at 37° C. without stirring and additional spectra were collected at the indicated times. The secondary structure content of each protein and its evolution during incubation were estimated by spectra deconvolution using the CDNN analysis program (Bohm, G., et al., Quantitative analysis of protein far UV circular dichroism spectra by neural networks, Protein Eng (1992) 5 (3): 191-5). For thermal stability measurements, the ellipticity changes induced by increasing the temperature (at a constant heating rate of 60° C./h) were measured at 222 nm in 5 mM NaH2PO4 pH 6.0 using a protein concentration of 20 μM. • Turbidimetry: Protein samples used were at 10 μM in PBS+0.02% NaN3, pH 7.0 for all the kinetic experiments. Samples were incubated at 37° C. without stirring. SCR and QBP1 peptides were used at 50 μM. • CR binding assay: Samples were aged for 7 days at 37° C. with 0.02% NaN3 and no stirring prior to performing the measurements. The protein samples (10 μM) were dialyzed in PBS pH 7.0 for the experiments. SCR and QBP1 peptides were used at 50 μM. • TEM imaging: Protein samples (10 μM) were dialyzed in PBS pH 7.0 for all the TEM measurements. Images were taken after 7 days of incubation at 37° C. in the presence of 0.02% NaN3 without stirring.

Drosophila melanogaster = conditions: for short-term memory (courtship suppression immediately after training) / long-term memory (courtship suppression after 24 hours): Elav-Gal4 driven expression; for short-term memory (courtship suppression immediately after training): 5 min after training; for long-term memory (courtship suppression after 24 hours): 24 h after training; for effect on fly development / normal courtship behaviour: expression in the nervous system; for normal courtship behaviour: untrained flies
Orb2A PLD [5] = test: TEM imaging of Orb2A PLD oligomers and fibers; conditions: protein 10 μM, peptide 50 μM, 7 days at 37° C.
Protocol: as §1

Tau = Tau (Homo sapiens, UniProt P10636); conditions: personal communication; cited from earlier work
Chain of Tau (P10636 whole entry): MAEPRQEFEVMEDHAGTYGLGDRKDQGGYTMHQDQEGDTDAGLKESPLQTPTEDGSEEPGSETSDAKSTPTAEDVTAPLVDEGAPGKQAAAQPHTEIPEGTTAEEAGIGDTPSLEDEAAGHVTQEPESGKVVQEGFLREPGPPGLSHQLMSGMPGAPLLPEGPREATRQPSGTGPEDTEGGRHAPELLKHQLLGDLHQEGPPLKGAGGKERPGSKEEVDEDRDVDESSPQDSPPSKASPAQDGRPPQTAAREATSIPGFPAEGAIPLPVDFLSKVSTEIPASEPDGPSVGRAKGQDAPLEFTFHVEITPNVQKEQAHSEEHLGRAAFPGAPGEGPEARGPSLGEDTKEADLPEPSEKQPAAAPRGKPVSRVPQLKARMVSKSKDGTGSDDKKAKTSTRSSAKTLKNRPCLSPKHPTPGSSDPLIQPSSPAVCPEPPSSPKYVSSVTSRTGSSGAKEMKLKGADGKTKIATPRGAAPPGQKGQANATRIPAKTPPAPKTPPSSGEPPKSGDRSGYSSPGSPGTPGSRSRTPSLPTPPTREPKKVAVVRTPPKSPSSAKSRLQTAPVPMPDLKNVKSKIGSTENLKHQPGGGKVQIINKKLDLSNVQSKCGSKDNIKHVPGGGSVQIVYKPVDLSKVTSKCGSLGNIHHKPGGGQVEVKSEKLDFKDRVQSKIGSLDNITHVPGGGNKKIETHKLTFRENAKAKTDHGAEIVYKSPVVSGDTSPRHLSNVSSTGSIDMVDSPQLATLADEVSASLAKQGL

polyQ tracks = conditions: administered orally; cited from earlier work
Sup35 = target: T1, Sup35 (Saccharomyces cerevisiae, UniProt P05453); conditions: cited from earlier work
T1 sequence (P05453 1-253 limits assumed): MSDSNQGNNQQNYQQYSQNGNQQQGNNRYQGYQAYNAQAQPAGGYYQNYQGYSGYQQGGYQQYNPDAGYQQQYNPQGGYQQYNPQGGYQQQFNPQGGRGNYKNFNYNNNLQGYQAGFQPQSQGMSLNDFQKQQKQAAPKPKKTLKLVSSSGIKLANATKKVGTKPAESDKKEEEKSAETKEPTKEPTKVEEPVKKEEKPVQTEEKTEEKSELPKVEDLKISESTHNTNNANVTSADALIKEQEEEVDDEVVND

-synuclein = -synuclein (Homo sapiens, UniProt P37840); conditions: cited from earlier work
[6] = tested on: monomeric expanded polyQ proteins; conditions: cited from earlier work

CC[C@H](C)[C@H](NC(=O)CNC(=O)[C@@H]1CCCN1C(=O)[C@H](Cc1c[nH]c2ccccc12)NC(=O)[C@H](Cc1c[nH]c2ccccc12)NC(=O)[C@H](CCCCN)NC(=O)[C@H](Cc1c[nH]c2ccccc12)NC(C)=O)C(=O)N[C@@H](Cc1ccccc1)C(N)=O [QBP1-f, Ac-WKWWPGIF-NH2] (Ac-WKWWPGIF-NH2)
Orb2A PLD amyloidogenesis monitored by turbidimetry (Orb2A PLD [1]): inhibited Orb2A PLD amyloidogenesis
interaction with Orb2A by ITC (full-length Orb2A): physically interacts with Orb2A
Orb2A PLD amyloidogenesis monitored by CR binding (Orb2A PLD [2]): inhibited Orb2A PLD amyloidogenesis
oligomerization and loss of far-UV CD signal due to aggregation and precipitation (Orb2A PLD [3]): suppressed the oligomerization processes and decreased the loss of signal due to aggregation and precipitation
putative M events (SMFS incomplete recordings) (Orb2A PLD [4]): fewer putative M events
structures formed per molecule (SMFS force peaks) (Orb2A PLD [4]): fewer structures formed per molecule
formation of M conformers (SMFS) (Orb2A PLD [4]; overnight 4° C., reduced from 37.7%): 16.1%
short-term memory (courtship suppression immediately after training) (Drosophila melanogaster): does not interfere with short-term memory
long-term memory (courtship suppression after 24 hours) (Drosophila melanogaster): loss of long-term memory
effect on fly development (Drosophila melanogaster): did not affect fly development
normal courtship behaviour (Drosophila melanogaster): slightly diminished
formation of oligomers and fibers by TEM (Orb2A PLD [5]): dramatic reduction in the formation of both oligomers and fibers

CC[C@H](C)[C@H](NC(=O)[C@@H]1CCCN1C(=O)[C@H](Cc1c[nH]c2ccccc12)NC(C)=O)C(=O)N[C@@H](Cc1c[nH]c2ccccc12)C(=O)N[C@@H](CCCCN)C(=O)NCC(=O)N[C@@H](Cc1c[nH]c2ccccc12)C(=O)N[C@@H](Cc1ccccc1)C(N)=O [SCR, Ac-WPIWKGWF-NH2] (Ac-WPIWKGWF-NH2)
interaction with Orb2A by ITC (full-length Orb2A): marginal interaction
oligomerization and loss of far-UV CD signal due to aggregation and precipitation (Orb2A PLD [3]): not
effect on NM/M conformational transition (SMFS) (Orb2A PLD [4]; overnight 4° C.): no effect
short-term memory (courtship suppression immediately after training) (Drosophila melanogaster): does not interfere with short-term memory
long-term memory (courtship suppression after 24 hours) (Drosophila melanogaster): no effect
effect on fly development (Drosophila melanogaster): did not affect fly development
normal courtship behaviour (Drosophila melanogaster): slightly diminished
formation of oligomers and fibers by TEM (Orb2A PLD [5]): not

QBP1: polyglutamine binding peptide 1, hydrophobic peptide, known inhibitor of amyloids including HttQ expansions (SNWKWWPGIFD; QBP1)
amyloidogenesis (Tau): not
amyloidogenesis of polyQ tracks in Drosophila (polyQ tracks): can inhibit amyloidogenesis
amyloidogenesis (conformational polymorphism, oligomerization, fibrillogenesis) (Sup35): inhibits amyloidogenesis
amyloidogenesis (conformational polymorphism, oligomerization, fibrillogenesis) (-synuclein): inhibits amyloidogenesis
β-conformational transition, oligomerization, fibrillogenesis, cytotoxicity and neurodegeneration of expanded polyQ proteins [6]: suppressing oligomerization, fibrillogenesis as well as associated cytotoxicity and neurodegeneration
